This note sets out measurements from patent publication US7534871B2, “Preparation and use of carbohydrate-based bicyclic ring structures with antimicrobial and cytostatic activity” (Kemin Pharma B.V.B.A., priority 2004, dated 2009).

≈ marks a conversion by molar mass, not a printed value.

The first data set concerns HSV-1 (KOS). Description: Anti-viral activity: HSV-1-induced cytopathicity in human embryo fibroblast E6SM cell cultures. The data set is classed as cell-based, herpes simplex virus (HSV). The conditions noted are these: Human alphaherpesvirus 1, 50%.
Take `c1ccc(CO[C@@H]2[C@@H](OCc3ccccc3)[C@H](Sc3ccccc3)O[C@@H]3CO[C@@H](c4ccccc4)O[C@@H]23)cc1` [KPE00001044]: the EC50 was more than 3.2 µg/mL.

The next data set has as its system HSV-2 (G). Description: Anti-viral activity: HSV-2-induced cytopathicity in human embryo fibroblast E6SM cell cultures. The data set is classed as cell-based, herpes simplex virus (HSV). The settings on record: Human alphaherpesvirus 2, 50%.
As for `c1ccc(CO[C@@H]2[C@@H](OCc3ccccc3)[C@H](Sc3ccccc3)O[C@@H]3CO[C@@H](c4ccccc4)O[C@@H]23)cc1` [KPE00001044], the EC50 is more than 3.2 µg/mL.

In another data set the test system is VV. Description: microbe, parasite or virus in culture. Type of data set: cell-based. The conditions noted are these: Orthopoxvirus vaccinia, E6SM, read-out: EC50 VV (E6SM).
Regarding `c1ccc(CO[C@@H]2[C@@H](OCc3ccccc3)[C@H](Sc3ccccc3)O[C@@H]3CO[C@@H](c4ccccc4)O[C@@H]23)cc1` [KPE00001044], the EC50 is more than 3.2 µg/mL.

In the next data set the test system is VZV OKA. Description: microbe, parasite or virus in culture. Type of data set: cell-based, varicella zoster virus (VZV). The conditions noted are these: Human alphaherpesvirus 3, HEL, read-out: EC50 VZV (HEL) OKA.
As to `c1ccc(CO[C@@H]2[C@@H](OCc3ccccc3)[C@H](Sc3ccccc3)O[C@@H]3CO[C@@H](c4ccccc4)O[C@@H]23)cc1` [KPE00001044], the EC50 is more than 2 µg/mL.

Another data set deals with VZV YS. The experiment in a line: Anti-viral activity: VZV-induced plaque formation in HEL cell cultures, YS strain. The settings on record: Human alphaherpesvirus 3, VZV-induced plaque formation in human embryonic lung HEL cell cultures, 50%. Type of data set: cell-based, varicella zoster virus (VZV).
Regarding `c1ccc(CO[C@@H]2[C@@H](OCc3ccccc3)[C@H](Sc3ccccc3)O[C@@H]3CO[C@@H](c4ccccc4)O[C@@H]23)cc1` [KPE00001044], the EC50 is more than 2 µg/mL.

The subject of the next data set is CMV AD-169 strain. The experiment in a line: Anti-CMV activity: plaque reduction in HEL cells, AD-169 strain. Type of data set: cell-based, human cytomegalovirus (CMV). The settings on record: Human betaherpesvirus 5, AD169, HEL; Table 6; reduce virus plaque formation by 50%; virus input 100 PFU; read-out: Anti-CMV activity IC50 AD-169 strain.
For `c1ccc(CO[C@@H]2[C@@H](OCc3ccccc3)[C@H](Sc3ccccc3)O[C@@H]3CO[C@@H](c4ccccc4)O[C@@H]23)cc1` [KPE00001044], the IC50 is more than 2 µg/mL.

A further data set deals with CMV Davis strain. Description: Anti-CMV activity: plaque reduction in HEL cells, Davis strain. The data set is classed as cell-based, human cytomegalovirus (CMV). The conditions noted are these: Human betaherpesvirus 5, HEL; Table 6; reduce virus plaque formation by 50%; virus input 100 PFU; read-out: Anti-CMV activity IC50 Davis strain.
Regarding `c1ccc(CO[C@@H]2[C@@H](OCc3ccccc3)[C@H](Sc3ccccc3)O[C@@H]3CO[C@@H](c4ccccc4)O[C@@H]23)cc1` [KPE00001044], the IC50 is more than 2 µg/mL.

A further data set concerns murine leukemia cells (L1210/0). The experiment in a line: Cytostatic activity: inhibition of proliferation of L1210/0 cells. The settings on record: Mus musculus, L1210/0; 50% inhibitory concentration, cell proliferation; read-out: IC50 L1210/0. Type of data set: cell-based. On the procedure: (§1) The compounds were tested for anti-tumor activity via the inhibitory effects on the proliferation of murine leukemia cells (L1210/0), murine mammary carcinoma cells (FM3A), human T-lymphocyte cells (Molt4/C8, CEM/0) and human cervix carcinoma cells (HeLa).
For `c1ccc(CO[C@@H]2[C@@H](OCc3ccccc3)[C@H](Sc3ccccc3)O[C@@H]3CO[C@@H](c4ccccc4)O[C@@H]23)cc1` [KPE00001044], the IC50 was more than 200 µg/mL.

The subject of the next data set is murine mammary carcinoma cells (FM3A). The experiment in a line: Cytostatic activity: inhibition of proliferation of FM3A cells. The data set is classed as cell-based. The conditions noted are these: Mus musculus, 50% inhibitory concentration, cell proliferation, read-out: IC50 FM3A/0. On the procedure: as §1
For the compound `c1ccc(CO[C@@H]2[C@@H](OCc3ccccc3)[C@H](Sc3ccccc3)O[C@@H]3CO[C@@H](c4ccccc4)O[C@@H]23)cc1` [KPE00001044], the IC50 amounted to 130 ± 61 µg/mL (≈ 240 µM).

A further data set deals with human T-lymphocyte cells (Molt4/C8). Description: Cytostatic activity: inhibition of proliferation of Molt4/C8 cells. Type of data set: cell-based. The settings on record: Molt4/C8, 50% inhibitory concentration, cell proliferation, read-out: IC50 Molt4/C8. On the procedure: as §1
On to `c1ccc(CO[C@@H]2[C@@H](OCc3ccccc3)[C@H](Sc3ccccc3)O[C@@H]3CO[C@@H](c4ccccc4)O[C@@H]23)cc1` [KPE00001044], for which the IC50 is more than 200 µg/mL.

Another data set relates to human T-lymphocyte cells (CEM/0). Description: Cytostatic activity: inhibition of proliferation of CEM/0 cells. The data set is classed as cell-based. The conditions noted are these: CCRF-CEM, 50% inhibitory concentration, cell proliferation, read-out: IC50 CEM/0. The procedure: as §1
In the case of `c1ccc(CO[C@@H]2[C@@H](OCc3ccccc3)[C@H](Sc3ccccc3)O[C@@H]3CO[C@@H](c4ccccc4)O[C@@H]23)cc1` [KPE00001044], the IC50 is more than 200 µg/mL.

The next data set concerns HEL cells. Description: Cytotoxicity: alteration of cell morphology (MCC). The data set is classed as cell-based, human. The settings on record: minimum cytotoxic concentration that causes a microscopically detectable alteration of cell morphology.
Turning to `c1ccc(CO[C@@H]2[C@@H](OCc3ccccc3)[C@H](Sc3ccccc3)O[C@@H]3CO[C@@H](c4ccccc4)O[C@@H]23)cc1` [KPE00001044], the “Cytotoxicity Cell morphology (MCC)” value came to 5 μg/ml.

Test system in another data set: not listed separately
The experiment in a line: Cytotoxicity: inhibition of HEL cell growth (CC50). The data set is classed as cell-based. The settings on record: human; concentration required to reduce cell growth by 50%; HEL cells, three days. The procedure: The medium was then replaced by MEM containing various concentrations of the test compound. After three days incubation at 37° C., when the cell monolayer was 70% confluent, the cell number was determined with the Coulter counter. The minimum cytotoxic concentration was defined as the concentration required to reduce cell growth by 50%.
`c1ccc(CO[C@@H]2[C@@H](OCc3ccccc3)[C@H](Sc3ccccc3)O[C@@H]3CO[C@@H](c4ccccc4)O[C@@H]23)cc1` [KPE00001044] returned a CC50 at 3 days of more than 50 µg/mL.
